Data on two compounds can be found in PMC9501377, “New Diarylamine KV10.1 Inhibitors and Their Anticancer Potential” (Pharmaceutics, 2022).

Structures are written as SMILES.

The subject of one assay is Panc-1 cells. The assay is described as follows: Cell growth by Incucyte confluence, Panc-1. Format: cell-based, human. The following applies: 48–72 h; for reduction of proliferation of Panc-1 cells: 25 µM. The protocol: MCF-7 (DSMZ ACC 115) and PANC-1 (DSMZ ACC 783) cells were grown as recommended by the cell supplier at 5% CO2 and 37 °C in a humidified atmosphere. For determining cell growth, cells were seeded in 96-well culture plates (Corning, Corning, NY, USA) at a density of 10^4 cells/well. After 24 h, the compounds were added diluted in medium. Six wells per condition were used. Four images of each well were collected at 1 h intervals for 48–72 h. Two biological replicates were performed. Images were acquired using an Incucyte device (Sartorius/Essen biosciences). Cell confluence was calculated using the Incucyte software on the phase contrast images. The results are expressed as percent confluence per well normalised to the value with no compounds added.

Assay [1] deals with MCF-7 breast cancer cell line. The assay is described as follows: MTS antiproliferative assay. In kind it is cell-based. The following applies: Homo sapiens, MCF7, 72 h. The protocol: The antiproliferative activities of the compounds were evaluated on the breast cancer cell line MCF-7 (ATCC HTB-22, adherent cells isolated from a person), using an MTS (Promega, Madison, WI, USA) assay according to the manufacturer’s instructions. The MCF-7 cell line was obtained from the American Type Culture Collection (ATCC, Manassas, VA, USA). Cells were cultured in low-glucose Dulbecco’s Modified Eagle’s Medium (DMEM) (Sigma-Aldrich, St. Louis, MO, USA), supplemented with 10% fetal bovine serum (Gibco, Thermo Fisher Scientific, Waltham, MA, USA), 100 U/mL penicillin (Sigma-Aldrich, St. Louis, MO, USA), 100 µg/mL streptomycin (Sigma-Aldrich, St. Louis, MO, USA), and 2 mM L-glutamine (Sigma-Aldrich, St. Louis, MO, USA). The cell line was incubated in a 5% CO2 atmosphere at 37 °C. Cells were plated out in 96-well plates at a density of 2000 cells per well and incubated overnight. The next day, cells were treated with the indicated compounds, positive control (17-DMAG), or vehicle control (0.5% DMSO) and incubated for 72 h. […] Absorbance was measured at 492 nm using a microplate reader (Synergy 4 Hybrid; BioTek, Winooski, VT, USA). […] Statistical significance (p < 0.05) was calculated using a two-tailed Welch’s t-test between treated groups and DMSO. IC50 values are given as averages of the independent measurements and were calculated using GraphPad Prism 8.0 software (San Diego, CA, USA). […]
A general note: Tetrazolium assays rely on reduction of a dye to a coloured formazan, in cell work by metabolically active cells.

In the next assay the target is hERG (Homo sapiens, UniProt Q12809). The assay is described as follows: Whole-cell patch-clamp, hERG inhibition. In kind it is cell-based. Set-up: expressed in transfected cells. As to conditions: dose–response fit. For orientation: Patch clamp records ionic current or voltage across a cell membrane.
Chain of hERG (Q12809 whole entry): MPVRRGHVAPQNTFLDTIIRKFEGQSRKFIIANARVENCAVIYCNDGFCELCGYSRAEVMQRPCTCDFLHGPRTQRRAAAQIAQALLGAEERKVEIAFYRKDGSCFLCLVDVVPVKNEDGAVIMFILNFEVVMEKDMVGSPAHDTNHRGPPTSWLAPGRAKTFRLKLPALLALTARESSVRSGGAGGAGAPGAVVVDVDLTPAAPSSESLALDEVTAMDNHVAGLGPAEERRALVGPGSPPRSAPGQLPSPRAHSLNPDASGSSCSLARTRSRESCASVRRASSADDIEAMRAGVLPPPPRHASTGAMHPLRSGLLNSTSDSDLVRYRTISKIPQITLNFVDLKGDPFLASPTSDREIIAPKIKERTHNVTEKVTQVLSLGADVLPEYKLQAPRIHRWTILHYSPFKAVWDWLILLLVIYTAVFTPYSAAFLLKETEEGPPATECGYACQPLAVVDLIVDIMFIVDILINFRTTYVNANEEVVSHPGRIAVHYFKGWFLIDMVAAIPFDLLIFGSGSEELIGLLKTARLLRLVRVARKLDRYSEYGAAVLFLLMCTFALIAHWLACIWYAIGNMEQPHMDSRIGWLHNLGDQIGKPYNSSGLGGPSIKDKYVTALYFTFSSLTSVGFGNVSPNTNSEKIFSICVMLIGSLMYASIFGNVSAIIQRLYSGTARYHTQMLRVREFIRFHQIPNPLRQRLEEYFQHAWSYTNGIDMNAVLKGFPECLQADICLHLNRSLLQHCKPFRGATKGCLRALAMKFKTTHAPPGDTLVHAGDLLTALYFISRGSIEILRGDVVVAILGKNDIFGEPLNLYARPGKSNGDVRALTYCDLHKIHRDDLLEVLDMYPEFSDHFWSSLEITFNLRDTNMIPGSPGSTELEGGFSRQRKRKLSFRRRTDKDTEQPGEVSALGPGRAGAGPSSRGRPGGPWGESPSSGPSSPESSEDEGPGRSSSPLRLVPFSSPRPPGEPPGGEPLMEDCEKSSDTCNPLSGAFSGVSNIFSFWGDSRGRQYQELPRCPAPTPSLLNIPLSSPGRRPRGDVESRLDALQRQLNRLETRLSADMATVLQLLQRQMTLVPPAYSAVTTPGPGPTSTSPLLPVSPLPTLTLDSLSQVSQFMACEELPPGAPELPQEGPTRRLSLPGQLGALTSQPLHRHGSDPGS
The next assay deals with T1, KV10.1 (Eag1) (Homo sapiens, UniProt O95259).
T1 construct: expressed in transfected cells; host or cells: HEK-293 (stably transfected)
T1 sequence (O95259 1-962 isoform O95259-2): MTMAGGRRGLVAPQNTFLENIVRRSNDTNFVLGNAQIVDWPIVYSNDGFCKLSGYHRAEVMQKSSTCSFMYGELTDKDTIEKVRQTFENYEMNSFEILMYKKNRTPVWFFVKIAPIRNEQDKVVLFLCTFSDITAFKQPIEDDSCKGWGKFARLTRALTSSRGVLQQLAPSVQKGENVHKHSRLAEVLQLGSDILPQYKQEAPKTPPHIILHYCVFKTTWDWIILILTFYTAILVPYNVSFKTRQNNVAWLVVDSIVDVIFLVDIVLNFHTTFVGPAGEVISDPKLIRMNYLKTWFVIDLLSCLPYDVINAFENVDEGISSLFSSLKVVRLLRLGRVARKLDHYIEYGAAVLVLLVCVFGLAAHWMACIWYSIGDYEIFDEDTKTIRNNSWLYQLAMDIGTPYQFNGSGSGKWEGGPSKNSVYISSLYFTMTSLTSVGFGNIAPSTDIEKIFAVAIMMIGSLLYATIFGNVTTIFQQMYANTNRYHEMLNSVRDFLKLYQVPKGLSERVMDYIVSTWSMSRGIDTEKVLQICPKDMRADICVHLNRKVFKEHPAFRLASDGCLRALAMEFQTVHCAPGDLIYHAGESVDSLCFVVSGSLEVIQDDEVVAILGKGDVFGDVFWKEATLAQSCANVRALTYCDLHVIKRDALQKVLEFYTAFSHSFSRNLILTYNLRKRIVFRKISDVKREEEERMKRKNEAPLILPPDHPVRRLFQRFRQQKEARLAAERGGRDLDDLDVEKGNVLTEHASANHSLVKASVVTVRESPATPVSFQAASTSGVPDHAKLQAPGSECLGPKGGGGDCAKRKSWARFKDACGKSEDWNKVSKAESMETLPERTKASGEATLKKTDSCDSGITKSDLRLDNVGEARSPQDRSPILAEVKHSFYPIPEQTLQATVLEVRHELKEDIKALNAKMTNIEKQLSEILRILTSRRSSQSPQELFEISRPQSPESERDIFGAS
The assay is described as follows: Whole-cell patch-clamp on stably transfected HEK-293 cells expressing KV10.1. As to conditions: for IC50: whole-cell patch-clamp, dose–response fit. Format: cell-based. The protocol:
For whole-cell patch-clamp measurements, stably transfected HEK-293 cells expressing KV10.1 [26, 27, 28] were grown in DMEM with 10% FCS and 300 µg/mL Zeocin on glass coverslips coated with fibronectin. All experiments were conducted at room temperature under perfusion by gravity with extracellular solution (160 mM NaCl, 2.5 mM KCl, 2 mM CaCl2, 1 mM MgCl2, 10 mM Hepes pH 7.4 with NaOH, 8 mM glucose). Pipettes were made from #1 glass capillaries (WPI) and had 1–3 MΩ resistance. The intracellular solution contained 100 mM KCl, 45 mM N-methyl-D-glucamine, 10 mM 1,2-bis(o-aminophenoxy)ethane-N,N,N′,N′-tetraacetic acid (BAPTA), 10 mM Hepes pH 7.35. Stimulation was applied and data were acquired with an EPC10 Plus amplifier (HEKA Elektronik) controlled with Patch Master software. Compounds were applied with an 8-channel fast solution exchanger (ALA). Compounds were prepared to a stock concentration of 10 mM in DMSO. The control solution contained 0.5% DMSO. Stimuli consisted of 500 ms depolarizations to +40 mV.
All electrophysiological data are presented as means ± SEM of n ≥ 3 independent experiments unless otherwise indicated. Oocyte data were analysed using pClamp Clampfit 10.4 (Molecular Devices, Downingtown, PA, USA) and OriginPro 9 (Originlab, Northampton, MA, USA) or GraphPad Prism 8 software (GraphPad Software, Inc., San Diego, CA, USA). Patch-clamp data analysis was performed using FitMaster (HEKA Electronics), IgorPro (Wavemetrics, Inc., Lake Oswego, OR, USA) and GraphPad Prism 9 (GraphPad Software, Inc., San Diego, CA, USA). The Dunnett test and one-way ANOVA were performed to calculate the significance of the induced inhibition compared to the control (p < 0.05).

Regarding `CCN(CC)CCOc1ccc(Nc2ccc(C(F)(F)F)cc2[N+](=O)[O-])cc1` [Compound 17a, N-(4-(2-(Diethylamino)ethoxy)phenyl)-2-nitro-4-(trifluoromethyl)aniline], the “reduction of proliferation of Panc-1 cells” value in the assay on Panc-1 cells is recorded as “approximately half”. In addition, the “inhibition of growth of Panc-1 cells” value in the assay with Panc-1 cells (concentrations higher than 25 µM) is “approximately 50%”. Further, the figures for the IC50 (in assay [1]; at hERG; against KV10.1 (Eag1)) were 18500 ± 1500 nM, 232 nM and 568 nM, respectively. Moreover, the inhibition (as a rule, the share of the control response that was lost under treatment) at 10 µM against KV10.1 (Eag1) (HEK293, 10 μM, HEK-293 cells, patch-clamp, mean ± SEM) stood at 86.2 ± 6.8%.
For the compound `CN(C)CCOc1c(Br)cc(Nc2ccc(C(F)(F)F)cc2[N+](=O)[O-])cc1Br` [Compound 18b, 3,5-Dibromo-4-(2-(dimethylamino)ethoxy)-N-(2-nitro-4-(trifluoromethyl)phenyl)aniline], in the assay on Panc-1 cells, the “reduction of proliferation of Panc-1 cells” value is on record as “approximately half”. In addition, the values for the IC50 (in assay [1]; on hERG; against KV10.1 (Eag1)) were 11900 ± 1000 nM, 4.9 nM and 216 nM, respectively. At KV10.1 (Eag1) (HEK293, 1 μM, HEK-293 cells, patch-clamp, mean ± SEM), this compound yielded an inhibition at 1 µM of 73.5 ± 0.5%.
